Calumenin expression data for one substance are collected here from patent US20070243548A1, “Calumenin-directed diagnostics and therapeutics for cancer and chemotherapeutic drug resistance” (priority 2006, published 2007).

The data set has as its system calumenin. Nature of the data set: Immunoblot of calumenin expression after siRNA transfection of MCF-7 cells. The settings on record: compared to mock and control siRNA, FIG. 2. The class given is cell-based, human. The text has this: To establish the importance of calumenin to the expression of the drug-resistant phenotype in MCF-7 cell lines, calumenin expression was silenced using RNAi. Briefly, the following siRNA duplexes targeting the human calumenin mRNA were designed and purchased either from Ambion (Austin, Tex.) or Invitrogen (Carlsbad, Calif.). The siRNA duplex sequences corresponding to nucleotides […] (REFSEQ ID NUMBER: NM_001428) targeting the start of the calumenin mRNA transcript were:
For a typical siRNA transfection, […] of the annealed siRNA duplex was mixed with 1.4 ml of Opti-MEM reagent (Invitrogen). In another tube, […] of Oligofectamine reagent (Invitrogen, Carlsbad, Calif.) was mixed with […] of Opti-MEM. The two solutions were combined and mixed gently by inversion and incubated for 20 min. at RT. […]
To determine the ability of cells to proliferate after they were transfected with […] or control siRNAs as indicated above, the cells were seeded the next day in a 96-well plate at 5×10^3 cells/well in quadruplicate. […] The resulting fluorescence was measured in a Wallac microplate reader (PerkinElmer, Inc., Boston, Mass.) using a 535 nm filter. […] The number of cells was determined by extrapolation from a standard curve.

For the substance “Calumenin siRNA: siRNA duplex targeting human calumenin mRNA; sense 5′-GAAGGACCGUGUACAUCAU-3′ (SEQ ID NO: 1), anti-sense 5′-AUGAUGUACACGGUCCUUC-3′ (SEQ ID NO: 2), 3′TT overhangs (3' TT overhangs on both strands, further chemistry not given here)”, the calumenin expression result is given as “significantly decreased”.
